Entries after “also recorded” stand apart in the source; their conditions may differ. Counter-ions that a name gives are not always drawn.
Columns and labels:
FLIP mRNA = FLIP mRNA by quantitative RT-PCR; type: cell-based, human; conditions: for expression of FLIP mRNA: Example 1, responding and non-responding cell lines, 24 hours, long isoform normalized for GAPDH
Description: (§1) FIG. 7. Effect of FAS-sensitizing compounds on levels of FLIP protein and DISC activation. (A) PPC-1 cells (2×10^5) were seeded into 35 mm plates and treated the next day with various FAS-sensitizing compounds (30 μM), with (+) or without (−) CH-11 antibody (100 ng/mL). As a positive control, cells were treated with CDDO (5 μM). Cell lysates were prepared 24 hours later, normalized for total protein content, and analyzed by SDS-PAGE/immunoblotting using antibodies specific for FLIP or a-tubulin. (B) PPC-1, OVCAR-3, T47D, MDA-MB-468 and DU 145 cells (2×10^5) were seeded into 35 mm plates and treated the next day with 5809354 (40 μM). Cell lysates were prepared 24 hours after treatment, normalized for total protein and analyzed by SDS-PAGE/immunoblotting using antibodies specific for FLIP or β-actin. (C) PPC-1, OVCAR-3, T47D, and DU 145 cells (2×10^5) were seeded into 35 mm plates and treated the next day with 5809354 (40 μM) (black bars) or buffer control (white bars). mRNA was extracted 24 hours after treatment. Levels of the long isoform of FLIP and GAPDH were detected by quantitative RT-PCR. Levels of FLIP were normalized for GAPDH expression and expressed as a mean fold change+SD over buffer treated cells. (D) PPC-1 cells (2×10^5) were seeded into 35 mm plates and treated the next day with various FAS-sensitizing compounds (30 μM) with (+) or without (−) CH-11 (100 ng/mL). Cell lysates were prepared 24 hours after treatment, normalized for total protein, and analyzed by SDS-PAGE/immunoblotting using antibodies specific for caspase-8 and β-actin.
FIG. 13. Small molecule down-regulation of FLIP sensitizes prostate cancer cells to anoikis. (A) PPC-1 cells were seeded overnight in adherent conditions and then treated with increasing concentrations of 5809354 for 16 hours. After incubation, cells were harvested. Total cellular RNA was extracted and mRNA levels of the long isoform of FLIP (FLIPL), the short isoform of FLIP (FLIPS), or rRNA levels of 18S were detected by real-time RT-PCR. Data were normalized using the ΔΔCT method and expressed as the mean±SEM percent of […] expression relative to untreated controls. (B) PPC-1 cells were cultured and treated as in panel A. Total cellular protein was isolated and analyzed by SDS-PAGE immunoblotting using anti-FLIP and anti-Actin antibodies. […] Thirty hours after incubation, cell viability was determined using the MTS assay. […] After incubation, apoptosis was measured by flow cytometry to detect cell surface annexin V expression and PI. […] (E) Cells were harvested, fixed, stained with DAPI, and nuclear morphology analyzed by fluorescence microscopy. […] One week later, cells were stained with methylene blue and the number of colonies counted. […]
Quantitative RT-PCR. […]

FAS or TRAIL receptors = experiment: Surface expression of FAS or TRAIL receptors by flow cytometry; type: cell-based, human; conditions: PPC-1 cells, flow cytometry (data not shown)
Text: Furthermore, since these compounds sensitize to both FAS and TRAIL, they presumably act distal to death receptors.

PPC-1 cells = experiment: MTT cell viability of PPC-1 cells treated with compound with or without CH-11 anti-FAS antibody; type: cell-based; conditions: for IC50: Homo sapiens, PPC-1, 24 h, compound alone without CH-11, MTT 24 hours, read-out: LD50 (μM) PPCl; for LD50 (μM) (PPCl, CH-11): PPC-1 cells with CH-11 100 ng/mL, MTT 24 hours, LD50 = concentration that reduces cell viability by 50%
Description: FIGS. 2A-C. […] PPC-1 cells (1×10^4) were seeded in 96 well plates. The next day, cells were treated with increasing concentrations of the sensitizing compounds with (open squares) and without (closed squares) CH-11 antibody (100 ng/mL). Cell viability was measured 24 hours later by MTT assay. Cell viability is expressed as a mean percentage of untreated cells+SD (n=3). The Chembridge identification numbers of the compounds are provided.
High throughput screening. […] PPC-1 cells (1×10^4) were seeded overnight into 96 well, flat-bottom plates (Costar, Cambridge, Mass.) in 100 μL of medium containing 2.5% FCS. […] CH-11 antibody (100 ng/mL) was then added, and the cells were incubated for 24 hours before assessing cell viability by a 3-(4,5-Dimethylthiazol-2-yl)-2,5-diphenyltetrazolium Bromide (MTT) dye reduction assay (Sigma).
Cell death assays. […] Absorbance readings were plotted against a standard curve to derive the corresponding cell number, and cell viability was expressed as a percentage relative to untreated cells.

FLIP = FLIP protein levels by SDS-PAGE/immunoblotting; type: cell-based, human
Description: as §1
FIG. 13. Small molecule down-regulation of FLIP sensitizes prostate cancer cells to anoikis. (A) PPC-1 cells were seeded overnight in adherent conditions and then treated with increasing concentrations of 5809354 for 16 hours. After incubation, cells were harvested. Total cellular RNA was extracted and mRNA levels of the long isoform of FLIP (FLIPL), the short isoform of FLIP (FLIPS), or rRNA levels of 18S were detected by real-time RT-PCR. Data were normalized using the ΔΔCT method and expressed as the mean±SEM percent of […] expression relative to untreated controls. (B) PPC-1 cells were cultured and treated as in panel A. Total cellular protein was isolated and analyzed by SDS-PAGE immunoblotting using anti-FLIP and anti-Actin antibodies. (C) PPC-1 cells were seeded overnight in adherent conditions and then exposed to increasing concentrations of 5809354 in the presence or absence of Fas-activating antibody (CH-11, 100 ng/mL). Thirty hours after incubation, cell viability was determined using the MTS assay. Data represents the mean±SEM of percent of viable cells. (D) PPC-1 cells were seeded overnight in adherent or suspension conditions and then treated with increasing concentrations of 5809354 for 30 hours. After incubation, apoptosis was measured by flow cytometry to detect cell surface annexin V expression and PI. Data represents the mean±SEM of percent of viable cells. (E) Cells were harvested, fixed, stained with DAPI, and nuclear morphology analyzed by fluorescence microscopy. Arrowheads refer to fragmented nuclei indicative of apoptosis. […] Thirty hours after incubation, cells were harvested and equal volumes plated in a colony formation assay. One week later, cells were stained with methylene blue and the number of colonies counted. Data represents the mean ±SEM percent of colonies relative to untreated controls.
Immunoblot analysis. Protein extracts were obtained by washing cells with phosphate-buffered saline (PBS) [pH 7.4] and suspending the cells in lysis buffer [10 mM Tris (pH 7.4), 150 mM NaCl, 0.1% Triton X-100, 0.5% sodium deoxycholate, and 5 mM EDTA] containing protease inhibitors (Complete tablets; Roche, Indianapolis, Ind.). Immunoblot assays were performed as described in Carter et al. (2005). […]

[1] = Example 2, PPC-1 cells, increasing concentrations, 16 hours
[2] = PPC-1 cells, 30 μM, with or without CH-11, 24 hours, long isoform

| Compound | expression of FLIP mRNA (FLIP mRNA) | surface expression of FAS or TRAIL receptors (FAS or TRAIL receptors) | IC50 (PPC-1 cells; PPC-1 cells) [µM] | toxicity when added alone relative to 5541203 (PPC-1 cells; PPC1 cells, without anti-FAS antibody) [times] | LD50 (μM) (PPCl, CH-11) (PPC-1 cells) | combination Index (CI) (PPC-1 cells; combined with CH-11, median-dose combination index (Chou, 1991), synergy) | levels of FLIP protein (FLIP; PPC-1 cells, 30 μM, with or without CH-11, 24 hours, long isoform, hydrobromide) | FLIP mRNA expression (FLIP mRNA; [1]) | FLIP protein expression (FLIP; [1]) | levels of FLIP protein (FLIP; [2]) | levels of FLIP protein (FLIP; non-responding cell lines DU145 and MDA-MB-468, 40 μM, 24 hours) | LD50 (μM) (PPCl, CH-11) (PPC-1 cells; listed as N-[4-chloro-3-(trifluoromethyl)phenyl]-3-oxobutanamide) [µM] | direct toxicity (PPC-1 cells; PPC-1 cells, compound alone, concentrations up to 80 μM) |
| --- | --- | --- | --- | --- | --- | --- | --- | --- | --- | --- | --- | --- | --- |
| CCn1c(=N)n(CC(=O)c2cc(C(C)(C)C)c(O)c(C(C)(C)C)c2)c2ccccc21 [compound 5569100, 1-(3,5-di-tert-butyl-4-hydroxyphenyl)-2-(3-ethyl-2-imino-2,3-dihydro-1H-benzo[d]imidazol-1-yl)ethanone hydrobromide] | did not reduce FLIP mRNA | did not change | 15 | 3 | 5.6 µM | did not demonstrate synergy | decreased levels of FLIP protein; also recorded: reduced FLIP expression |  |  |  |  |  |  |
| 4-(4-chloro-2-methylphenoxy)-N-hydroxybutanamide [compound 5809354] | reduced expression of FLIP mRNA | did not change |  |  | 20+2 μM |  |  | concentration-dependent decrease | concentration-dependent decrease | decreased levels of FLIP protein | levels of FLIP were decreased |  |  |
| CC(=O)CC(=O)Nc1ccc(Cl)c(C(F)(F)F)c1 [compound 6094911, N-[4-chloro-3-(trifluoromethyl)phenyl]-3-oxobutanamide] | did not reduce FLIP mRNA | did not change | > 100 |  | 35+4 μM |  |  |  |  | did not alter levels of FLIP protein |  | 35 ± 4 | little direct toxicity |

From patent US8008354B2, “Death receptor sensitizing compounds and methods of use therefor” (Burnham Institute for Medical Research, priority 2006, dated 2011)
